Where two headings read alike, the source gives them in different places.
Experiments:
[1] = tested on: SARS-COV-2 RNA G4, position 14947 (NsP12); assay: CD thermal melting analysis, G4 No. 12; type: binding; settings: G4 No. 12, position 14947, NsP12; 15 μM RNA G4, 30 μM compound
Description: (§1) For melting, the samples were heated at 25 to 95° C. at 2° C./min with a data pitch of 0.5° C. CD melting analyses were performed with and without G4-binding compounds. The ratio of RNA: G4-binding compound was set to a molar ratio of 1:2. 15 μM RNA G4 was treated with 30 μM G4-binding compound and incubated at room temperature in a buffer comprising 10 mM Tris-HCl (pH 7.5) and 100 mM KCl for 30 minutes. Ellipticity was measured at 265 nm. Thereafter, data were normalized and plotted in OriginPro 2017 to calculate Tm values.
(§2) In addition, 15 μM RNA G4 was treated with 30 μM compound and incubated, and a CD thermal melting curve of RNA G4 (15 μM) was obtained in the presence or absence of the G4-binding compound. Furthermore, the effect of G4-binding compounds on the stability of SARS-COV-2 G4 was confirmed by measuring the difference in melting temperature (ΔTm). The results are illustrated in FIGS. 6A and 6B.

HCoV-OC43 = HCoV-OC43 dose response curve analysis, virion production (plaque assay), HCT-8 cells; type: cell-based; settings: Betacoronavirus 1, OC43, 0.05 MOI, 72 hours after infection
[2] = tested on: SARS-COV-2 RNA G4, position 25951 (ORF3a protein); assay: CD thermal melting analysis, G4 No. 20; type: binding; settings: G4 No. 20, position 25951, ORF3a protein; 15 μM RNA G4, 30 μM compound
Description: as §1, §2

[3] = tested on: SARS-COV-2 RNA G4, position 24215 (Surface glycoprotein); assay: CD thermal melting analysis, G4 No. 17; type: binding; settings: G4 No. 17, position 24215, Surface glycoprotein; 15 μM RNA G4, 30 μM compound
Description: as §1, §2

[4] = tested on: SARS-COV-2 RNA G4, position 1574 (NsP2); assay: CD thermal melting analysis, G4 No. 4; type: binding; settings: G4 No. 4, position 1574, NsP2; 15 μM RNA G4, 30 μM compound
Description: as §1, §2

[5] = tested on: SARS-COV-2 RNA G4, position 8687 (NsP4); assay: CD thermal melting analysis, G4 No. 9; type: binding; settings: G4 No. 9, position 8687, NsP4; 15 μM RNA G4, 30 μM compound
Description: as §1, §2

[6] = tested on: SARS-COV-2 RNA G4, position 24268 (Surface glycoprotein); assay: CD thermal melting analysis, G4 No. 18; type: binding; settings: G4 No. 18, position 24268, Surface glycoprotein; 15 μM RNA G4, 30 μM compound
Description: as §1, §2

[7] = tested on: SARS-COV-2 RNA G4, position 28781 (Nucleocapsid protein); assay: CD thermal melting analysis, G4 No. 22; type: binding; settings: G4 No. 22, position 28781, Nucleocapsid protein; 15 μM RNA G4, 30 μM compound
Description: as §1, §2

SARS-COV-2 [8] = assay: microbe, parasite or virus in culture; type: cell-based; settings: Severe acute respiratory syndrome coronavirus 2, Vero cells, read-out: IC50, virion production
Vero cells = assay: Cell viability analysis (EZ Cytox), Vero cells; type: cell-based; settings: up to 75 μM after 48 hours
Description: (§3) Human embryonic kidney (HEK293T) cells and Vero cells were maintained in high-glucose Dulbecco's Modified Eagle's Medium (DMEM) supplemented with 10% fetal bovine serum (FBS) and 1% penicillin-streptomycin, and cultured in a humidified incubator at 37° C. and 5% CO2.
(§4) Cytotoxicity was analyzed using an EZ Cytox assay kit (DogenBio, Korea). HEK293T and Vero cells were put into a 96-well plate at a density of 2×10^4 cells/well in a medium volume of 100 μl/well and cultured at 37° C. for 24 hours. After 24 hours, the cells were treated with the G4-binding compound at various concentrations (0.1, 0.5, 1, 2.5, 5.5, 7.5, 10, 25, 50, and 75 μM) and cultured at 37° C. for 24 hours or 48 hours. Cell viability (%) was calculated by measuring the absorbance value at 455 nm (Luminescence multi-mode microplate reader Synergy™ Neo2) and using the following Equation 1. All experiments were performed in triplicate, and cells untreated with the compound were used as a control. DMEM with the EZ Cytox reagent was used as a blank.
(§5) The toxicity of PDS and PhenDC3 was confirmed in HEK293T cells and Vero cells. The results are illustrated in FIGS. 7A to 7D.

SARS-COV-2 [9] = assay: microbe, parasite or virus in culture; type: cell-based; settings: Severe acute respiratory syndrome coronavirus 2; Vero cells, 0.0125 MOI, 24 hours; read-out: IC50, suppressing SARS-COV-2 infection (N protein expression)
HEK293T cells = assay: Cell viability analysis (EZ Cytox), HEK293T cells; type: cell-based, Human; settings: up to 75 μM
Description: as §3, §4, §5

N1-WT-G4-3467 (Nsp3 G4) = assay: In-vitro transcription/translation (IVT) analysis, EYFP reporter western blot, N1-WT-G4-3467; type: biochemical, SARS-COV-2; settings: N1-WT-G4-3467, compound at 15 to 50 μM
N1-Mut-G4-3467 = type: biochemical, SARS-COV-2; settings: N1-Mut-G4-3467, 5, 15, 25 and 50 μM
N1-WT-G4-353 (Nsp1 G4) = assay: In-vitro transcription/translation (IVT) analysis, EYFP reporter western blot, N1-WT-G4-353; type: biochemical, SARS-COV-2

SMILES	Tm in ° C. with compound [1] [°C]	ΔTm [1] [°C]	Tm in ° C. with compound [2] [°C]	ΔTm [2] [°C]	Tm in ° C. with compound [3] [°C]	ΔTm [3] [°C]	Tm in ° C. with compound [5] [°C]	ΔTm [5] [°C]	Tm in ° C. with compound [6] [°C]	ΔTm [6] [°C]	also measured
CN1CCC[C@H]1CCNC(=O)c1cn2c3c(c(N4CCC(c5cnccn5)C4)c(F)cc3c1=O)Oc1cc3ccccc3cc1-2 (stereo partly drawn) [CX-3543, 15-fluoro-N-[2-[(2S)-1-methylpyrrolidin-2-yl]ethyl]-18-oxo-14-(3-pyrazin-2-ylpyrrolidin-1-yl)-12-oxa-1-azapentacyclo [11.7.1.0^2,11.0^4,9.0^17,21]henicosa-2,4,6,8, 10, 13 (21), 14,16,19-nonaene-19-carboxamide]	58.11	0.9	53.87	5.13	57.16	1.74	49.83	2.97	40.42	−0.05	IC50 (HCoV-OC43): 1400 nM; Tm in ° C. with compound [4]: 53.43 °C; ΔTm [4]: 0.05 °C; Tm in ° C. with compound [7]: 82.9 °C; ΔTm [7]: 18.2 °C
NCCOc1cc(C(=O)Nc2cc(OCCN)c3ccccc3n2)nc(C(=O)Nc2cc(OCCN)c3ccccc3n2)c1 [PDS, 4-(2-aminoethoxy)-N2,N6-bis(4-(2-aminoethoxy)quinolin-2-yl)pyridine-2,6-dicarboxamide]	82.16	24.95	92.26	43.52	62.93	7.51	84.44	37.58	46.11	5.64	IC50 (SARS-COV-2 [8]; 24 hours after infection): 1450 nM; IC50 (SARS-COV-2 [8]; 48 hours after infection): 2770 nM; cytotoxicity in Vero cells (Vero cells): no cytotoxicity was observed; IC50 (SARS-COV-2 [9]): 9450 nM; cytotoxicity in HEK293T cells (HEK293T cells): safe to use; EYFP expression suppressed by (N1-WT-G4-3467 (Nsp3 G4)): 60%; EYFP expression, concentration-dependent suppression (N1-Mut-G4-3467): not suppressed; EYFP expression reduced by (N1-WT-G4-353 (Nsp1 G4); N1-WT-G4-353, compound at 50 μM): 65%; suppressing EYFP reporter expression (N1-WT-G4-353 (Nsp1 G4); N1-WT-G4-353, concentrations less than 50 μM): not effective
